Columns and labels:
[1] = compound: CCCCOc1c(C(=O)c2c(F)cc(C)cc2F)c[nH]c2nncc1-2
Luminespib/NVP-AUY922 = compound: CCNC(=O)c1noc(-c2cc(C(C)C)c(O)cc2O)c1-c1ccc(CN2CCOCC2)cc1 [Luminespib/NVP-AUY922]
THZ-P1-2 = compound: CN(C)C/C=C/C(=O)NC1=CC=C(C=C1)C(=O)NC2=CC=CC(=C2)NC3=NC=NC(=C3)C4=CNC5=CC=CC=C54 [THZ-P1-2]
BSJ-01-175 = compound: CN(C)C/C=C/C(=O)Nc1ccc(O[C@@H]2CCC[C@@H](Nc3ncc(Cl)c(-c4c[nH]c5ccccc45)n3)C2)cc1 [BSJ-01-175]
Saracatinib/AZD0530 = compound: CN1CCN(CCOc2cc(OC3CCOCC3)c3c(Nc4c(Cl)ccc5c4OCO5)ncnc3c2)CC1 [Saracatinib/AZD0530]
Ceritinib/LDK378 = compound: Cc1cc(Nc2ncc(Cl)c(Nc3ccccc3S(=O)(=O)C(C)C)n2)c(OC(C)C)cc1C1CCNCC1 [Ceritinib/LDK378]
YKL-5-124 = compound: C=CC(=O)Nc1ccc(C(=O)Nc2[nH]nc3c2CN(C(=O)N[C@H](CN(C)C)c2ccccc2)C3(C)C)cc1 [YKL-5-124]; experiment: increase in dead-cell fraction, 72 h; higher = more death;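 further: breast cancer cell lines in 384-well plates, stained with Hoechst plus LIVE/DEAD far red dye and imaged, cells above an LDR intensity threshold counted dead, Hoechst-negative corpses included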
BSJ-03-123 = compound: CC(=O)c1c(C)c2cnc(Nc3ccc(N4CCN(CCOCCOCCOCCNC(=O)COc5cccc6c5C(=O)N(C5CCC(=O)NC5=O)C6=O)CC4)cn3)nc2n(C2CCCC2)c1=O [BSJ-03-123]; experiment: as above
[2] = compound: CC(=O)c1c(C)c2cnc(Nc3ccc(N4CCNCC4)cn3)nc2n(C2CCCC2)c1=O; experiment: as above
[3] = compound: CCN1CCN(Cc2ccc(Nc3ncc(F)c(-c4cc(F)c5nc(C)n(C(C)C)c5c4)n3)nc2)CC1; experiment: as above
Neratinib/HKI272 = compound: CCOc1cc2ncc(C#N)c(Nc3ccc(OCc4ccccn4)c(Cl)c3)c2cc1NC(=O)/C=C/CN(C)C [Neratinib/HKI272]; experiment: as above
[4] = compound: CCc1cnn2c(NCc3ccc[n+]([O-])c3)cc(N3CCCC[C@H]3CCO)nc12; experiment: as above
LEE011/Ribociclib = compound: CN(C)C(=O)c1cc2cnc(Nc3ccc(N4CCNCC4)cn3)nc2n1C1CCCC1 [LEE011/Ribociclib]; experiment: as above
THZ531 = compound: CN(C)C/C=C/C(=O)Nc1ccc(C(=O)N2CCC[C@@H](Nc3ncc(Cl)c(-c4c[nH]c5ccccc45)n3)C2)cc1 [THZ531]; experiment: as above
THZ1 = compound: CN(C)C/C=C/C(=O)Nc1ccc(C(=O)Nc2cccc(Nc3ncc(Cl)c(-c4c[nH]c5ccccc45)n3)c2)cc1 [THZ1]; experiment: as above
Flavopiridol = compound: CN1CC[C@H](c2c(O)cc(O)c3c(=O)cc(-c4ccccc4Cl)oc23)[C@H](O)C1 [Flavopiridol]; experiment: as above
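Wherever GR50, 72 h is given: breast cancer and non-malignant breast epithelial cell lines, Deep Dye Drop or Dye Drop imaging, nine half-log doses, GR normalized to time-zero plates and DMSO-only controls.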

CAMA1
GR50, 72 h [1]: < 0.001 µM
GR50, 72 h (Luminespib/NVP-AUY922): 0.00885 µM
GR50, 72 h (THZ-P1-2): 3.39 µM
GR50, 72 h (BSJ-01-175): 0.101 µM
GR50, 72 h (Saracatinib/AZD0530): > 10 µM
GR50, 72 h (Ceritinib/LDK378): 1.8 µM
increase in dead-cell fraction (YKL-5-124; 0.001 µM): 0.0009
increase in dead-cell fraction (YKL-5-124; 0.003162 µM): 0.0059
increase in dead-cell fraction (YKL-5-124; 0.01 µM): 0.0122
increase in dead-cell fraction (YKL-5-124; 0.03162 µM): 0.0047
increase in dead-cell fraction (YKL-5-124; 0.1 µM): 0.006
increase in dead-cell fraction (YKL-5-124; 0.3162 µM): 0.0148
increase in dead-cell fraction (YKL-5-124; 1 µM): -0.0034
increase in dead-cell fraction (YKL-5-124; 3.162 µM): 0.01
increase in dead-cell fraction (YKL-5-124; 10 µM): 0.322
increase in dead-cell fraction (BSJ-03-123; 0.001 µM): -0.0067
increase in dead-cell fraction (BSJ-03-123; 0.003162 µM): -0.0023
increase in dead-cell fraction (BSJ-03-123; 0.01 µM): 0.0007
increase in dead-cell fraction (BSJ-03-123; 0.03162 µM): -0.0025
increase in dead-cell fraction (BSJ-03-123; 0.1 µM): 0.0035
increase in dead-cell fraction (BSJ-03-123; 0.3162 µM): -0.0021
increase in dead-cell fraction (BSJ-03-123; 1 µM): 0.0045
increase in dead-cell fraction (BSJ-03-123; 3.162 µM): -0.0077
increase in dead-cell fraction (BSJ-03-123; 10 µM): 0.0255
increase in dead-cell fraction ([2]; 0.0003162 µM): -0.0052
increase in dead-cell fraction ([2]; 0.001 µM): 0.0045
increase in dead-cell fraction ([2]; 0.003162 µM): -0.006
increase in dead-cell fraction ([2]; 0.01 µM): -0.0044
increase in dead-cell fraction ([2]; 0.03162 µM): -0.0065
increase in dead-cell fraction ([2]; 0.1 µM): -0.0028
increase in dead-cell fraction ([2]; 0.3162 µM): 0.0013
increase in dead-cell fraction ([2]; 1 µM): 0
increase in dead-cell fraction ([2]; 3.162 µM): -0.0024
increase in dead-cell fraction ([3]; 0.001 µM): -0.0054
increase in dead-cell fraction ([3]; 0.003162 µM): -0.0135
increase in dead-cell fraction ([3]; 0.01 µM): -0.0075
increase in dead-cell fraction ([3]; 0.03162 µM): -0.0084
increase in dead-cell fraction ([3]; 0.1 µM): 0.0035
increase in dead-cell fraction ([3]; 0.3162 µM): -0.0078
increase in dead-cell fraction ([3]; 1 µM): -0.0025
increase in dead-cell fraction ([3]; 3.162 µM): -0.0084
increase in dead-cell fraction ([3]; 10 µM): 0.0143
increase in dead-cell fraction (Neratinib/HKI272; 0.0003162 µM): 0.0013
increase in dead-cell fraction (Neratinib/HKI272; 0.001 µM): 0.0021
increase in dead-cell fraction (Neratinib/HKI272; 0.003162 µM): -0.0002
increase in dead-cell fraction (Neratinib/HKI272; 0.01 µM): 0.0022
increase in dead-cell fraction (Neratinib/HKI272; 0.03162 µM): 0.0081
increase in dead-cell fraction (Neratinib/HKI272; 0.1 µM): 0.0011
increase in dead-cell fraction (Neratinib/HKI272; 0.3162 µM): 0.0067
increase in dead-cell fraction (Neratinib/HKI272; 1 µM): 0.0021
increase in dead-cell fraction (Neratinib/HKI272; 3.162 µM): 0.0342
increase in dead-cell fraction ([4]; 0.0001 µM): -0.0004
increase in dead-cell fraction ([4]; 0.0003162 µM): -0.0044
increase in dead-cell fraction ([4]; 0.001 µM): 0.0031
increase in dead-cell fraction ([4]; 0.003162 µM): 0.0113
increase in dead-cell fraction ([4]; 0.01 µM): 0.0533
increase in dead-cell fraction ([4]; 0.03162 µM): 0.153
increase in dead-cell fraction ([4]; 0.1 µM): 0.46
increase in dead-cell fraction ([4]; 0.3162 µM): 0.518
increase in dead-cell fraction ([4]; 1 µM): 0.56
increase in dead-cell fraction (LEE011/Ribociclib; 0.001 µM): -0.0064
increase in dead-cell fraction (LEE011/Ribociclib; 0.003162 µM): -0.0056
increase in dead-cell fraction (LEE011/Ribociclib; 0.01 µM): -0.0011
increase in dead-cell fraction (LEE011/Ribociclib; 0.03162 µM): -0.0009
increase in dead-cell fraction (LEE011/Ribociclib; 0.1 µM): 0.006
increase in dead-cell fraction (LEE011/Ribociclib; 0.3162 µM): 0.0058
increase in dead-cell fraction (LEE011/Ribociclib; 1 µM): 0.011
increase in dead-cell fraction (LEE011/Ribociclib; 3.162 µM): 0.0045
increase in dead-cell fraction (LEE011/Ribociclib; 10 µM): 0.0049
increase in dead-cell fraction (THZ531; 0.0001 µM): 0.001
increase in dead-cell fraction (THZ531; 0.0003162 µM): -0.0014
increase in dead-cell fraction (THZ531; 0.001 µM): -0.0002
increase in dead-cell fraction (THZ531; 0.003162 µM): -0.005
increase in dead-cell fraction (THZ531; 0.01 µM): 0.0035
increase in dead-cell fraction (THZ531; 0.03162 µM): 0.0054
increase in dead-cell fraction (THZ531; 0.1 µM): 0.0126
increase in dead-cell fraction (THZ531; 0.3162 µM): 0.0499
increase in dead-cell fraction (THZ531; 1 µM): 0.189
increase in dead-cell fraction (THZ1; 0.0001 µM): -0.0002
increase in dead-cell fraction (THZ1; 0.0003162 µM): 0.0023
increase in dead-cell fraction (THZ1; 0.001 µM): -0.002
increase in dead-cell fraction (THZ1; 0.003162 µM): -0.0017
increase in dead-cell fraction (THZ1; 0.01 µM): 0.0023
increase in dead-cell fraction (THZ1; 0.03162 µM): 0.0135
increase in dead-cell fraction (THZ1; 0.1 µM): 0.0187
increase in dead-cell fraction (THZ1; 0.3162 µM): 0.0397
increase in dead-cell fraction (THZ1; 1 µM): 0.187
increase in dead-cell fraction (Flavopiridol; 0.0001 µM): 0.0013
increase in dead-cell fraction (Flavopiridol; 0.0003162 µM): 0.0009
increase in dead-cell fraction (Flavopiridol; 0.001 µM): 0.0022
increase in dead-cell fraction (Flavopiridol; 0.003162 µM): 0.0011
increase in dead-cell fraction (Flavopiridol; 0.01 µM): 0.0016
increase in dead-cell fraction (Flavopiridol; 0.03162 µM): 0.0052
increase in dead-cell fraction (Flavopiridol; 0.1 µM): 0.0067
increase in dead-cell fraction (Flavopiridol; 0.3162 µM): 0.0207
increase in dead-cell fraction (Flavopiridol; 1 µM): 0.107
